Patent US4230702A, “Readily enterally absorbable pharmaceutical compositions of per se poorly enterally absorbable pharmacologically active agents” (priority 1978, dated 1980)
Like-named read-outs stand apart in the source and are kept apart here.

Tests used:
[1] = Renal excretion of benzarone, comparison of areas beneath the curves; type: in vivo, rat; details: 1000 mg/kg oral, rats, solution in Rilanit GMO compared with aqueous suspension, 15 hours
Protocol: Furthermore doses of 1000 mg/kg of benzarone in the form of a solution in Rilanit GMO^4) and in form of a suspension in water are orally administered to rats by means of an oral feeding tube. The urine of the animals is collected every 2 hours over a period of 15 hours and the amount of the excreted benzarone therein is determined spectrophotometrically. The measured values are plotted on a graph and the areas beneath the resulting curves are compared.

[2] = Blood (serum) level of benzarone, comparison of areas beneath the blood level curves; type: in vivo, rat; details: 1000 mg/kg oral, rats, solution in Rilanit GMO compared with aqueous suspension, up to 15 hours
Protocol: For determining the blood level values, a dose of 1000 mg/kg of benzarone in form of a solution in Rilanit GMO^4) and in form of a suspension in water are administered to rats by means of an oral feeding tube.
Subsequently every two hours including the 10th hour, 8 animals of each group, and after 15 hours, 4 more animals of each group are sacrificed and their blood is recovered by means of a cordial cut. The amount of benzarone in the serum is determined spectrophotometrically. The measured blood level values are plotted on a graph and the areas beneath the resulting blood level curves are compared.

[3] = Oral toxicity (LD50) of solutions in partial glycerides versus suspension in aqueous tylose; details: guinea pig, in vivo, female guinea pigs
Protocol: For testing the toxicity, solutions of g-strophanthin, proscillaridin A or medrogestone in various mixtures of mono-and diglycerides of long chain fatty acids and comparative formulations of the same pharmacologically active agents suspended in a tylose solution in water are administered orally to female guinea pigs of 250 to 300 g body weight by means of an oral feeding tube.

[4] = Renal excretion of carbon-14 labelled progesterone, cumulative urinary 14C; type: in vivo, guinea pig; details: 20 mg/kg oral; for Cumulative Renal Excretion of Progesterone: guinea pigs
Protocol: For determining the renal excretion, a dose of 20 mg/kg of carbon-14 labelled progesterone in the form of solutions in various mixtures of partial glycerides of long chain fatty acids and a comparative formulation wherein the progesterone is suspended in an aqueous tylose solution are administered orally to female guinea pigs having an average body weight of about 300 g. The urine of the animals is collected every 24 hours and the ^14 C-content in equal amounts of the urine is determined. The cumulated amount of excreted material is shown in Table II below in % of the administered dose. The percentage of excreted material is about 83% for the solution of progesterone in Peceol.

[5] = solution in Peceol (mono, di, and triglycerides of oleic acid), read-out: LD50 in Peceol
[6] = solution in Witafrol 7470 (mono- and diglycerides of oleic acid), read-out: LD50 in Witafrol 7470
[7] = suspended in tylose (methylcellulose) solution in water, read-out: LD50 in Tylose

With CCc1oc2ccccc2c1C(=O)c1ccc(O)cc1 [benzarone, 2-ethyl-3-(4-hydroxybenzoyl)benzofuran] the “increase of the renal excretion of benzarone (comparison of areas beneath the curves)” value [1] was 437% and the “increase of the concentration of benzarone in the serum (comparison of areas beneath blood level curves)” value [2] was 257%.
In the case of CC1OC(OC2CC(O)C3(CO)C4C(O)CC5(C)C(C6=CC(=O)OC6)CCC5(O)C4CCC3(O)C2)C(O)C(O)C1O (stereo not shown) [g-strophanthin], the LD50 [3, 5] is reported as 8.38 mg/kg, the LD50 [3, 6] is reported as 8.28 mg/kg and the LD50 [3, 7] is reported as 34.8 mg/kg.
CC(=O)[C@@]1(C)CC[C@H]2[C@@H]3C=C(C)C4=CC(=O)CC[C@]4(C)[C@H]3CC[C@@]21C [medrogestone] gave an LD50 [3, 5] of 850 mg/kg, an LD50 ([3]; solution in Rilanit GMO (mono- and diglycerides of oleic acid), read-out: LD50 in Rilanit GMO) of 862 mg/kg and an LD50 [3, 7] of 1470 mg/kg.
For CC(=O)[C@H]1CC[C@H]2[C@@H]3CCC4=CC(=O)CC[C@]4(C)[C@H]3CC[C@]12C [progesterone], the “percentage of excreted material” value ([4]; female guinea pigs, 14C-progesterone, solution in Peceol, % of the administered dose) was “about 83%”, the “amount of excreted material relative to the suspension in the tylose solution” value ([4]; female guinea pigs, solution in Peceol versus tylose suspension) was “about twice as high” and the “Cumulative Renal Excretion of Progesterone” value (from here on “Cumulative Renal Excretion”) ([4]; Peceol X1, 1. day) was 46.0 % of the Administered Dose. The “Cumulative Renal Excretion” value ([4]; Peceol X1, 2. day) was 64.6 % of the Administered Dose, the “Cumulative Renal Excretion” value ([4]; Peceol X1, 3. day) was 71.6 % of the Administered Dose and the “Cumulative Renal Excretion” value ([4]; Peceol X1, 4. day) was 76.1 % of the Administered Dose. For the same molecule, the “Cumulative Renal Excretion” value ([4]; Peceol X1, 5. day) was 79.1 % of the Administered Dose, the “Cumulative Renal Excretion” value ([4]; Peceol X1, 6. day) was 81.1 % of the Administered Dose and the “Cumulative Renal Excretion” value ([4]; Peceol X1, 7. day) was 82.9 % of the Administered Dose. The “Cumulative Renal Excretion” value ([4]; Softigen 701, 1. day) was 51.6 % of the Administered Dose, the “Cumulative Renal Excretion” value ([4]; Softigen 701, 2. day) was 63.2 % of the Administered Dose and the “Cumulative Renal Excretion” value ([4]; Softigen 701, 3. day) was 66.2 % of the Administered Dose. For the same molecule, the “Cumulative Renal Excretion” value ([4]; Softigen 701, 4. day) was 66.9 % of the Administered Dose, the “Cumulative Renal Excretion” value ([4]; Softigen 701, 5. day) was 67.4 % of the Administered Dose and the “Cumulative Renal Excretion” value ([4]; Softigen 701, 6. day) was 67.6 % of the Administered Dose. For the same molecule, the “Cumulative Renal Excretion” value ([4]; Softigen 701, 7. day) was 67.7 % of the Administered Dose, the “Cumulative Renal Excretion” value ([4]; Tegin 0, 1. day) was 37.9 % of the Administered Dose and the “Cumulative Renal Excretion” value ([4]; Tegin 0, 2. day) was 48.7 % of the Administered Dose. For the same molecule, the “Cumulative Renal Excretion” value ([4]; Tegin 0, 3. day) was 51.6 % of the Administered Dose, the “Cumulative Renal Excretion” value ([4]; Tegin 0, 4. day) was 52.3 % of the Administered Dose and the “Cumulative Renal Excretion” value ([4]; Tegin 0, 5. day) was 52.6 % of the Administered Dose. The “Cumulative Renal Excretion” value ([4]; Tegin 0, 6. day) was 52.8 % of the Administered Dose, the “Cumulative Renal Excretion” value ([4]; Tegin 0, 7. day) was 52.9 % of the Administered Dose and the “Cumulative Renal Excretion” value ([4]; Tegomuls X10, 1. day) was 42.5 % of the Administered Dose. The “Cumulative Renal Excretion” value ([4]; Tegomuls X10, 2. day) was 58.3 % of the Administered Dose, the “Cumulative Renal Excretion” value ([4]; Tegomuls X10, 3. day) was 69.2 % of the Administered Dose and the “Cumulative Renal Excretion” value ([4]; Tegomuls X10, 4. day) was 75.2 % of the Administered Dose. The “Cumulative Renal Excretion” value ([4]; Tegomuls X10, 5. day) was 78.8 % of the Administered Dose, the “Cumulative Renal Excretion” value ([4]; Tegomuls X10, 6. day) was 80.6 % of the Administered Dose and the “Cumulative Renal Excretion” value ([4]; Tegomuls X10, 7. day) was 81.9 % of the Administered Dose. The “Cumulative Renal Excretion” value ([4]; Tegomuls X17, 1. day) was 43.7 % of the Administered Dose, the “Cumulative Renal Excretion” value ([4]; Tegomuls X17, 2. day) was 55.0 % of the Administered Dose and the “Cumulative Renal Excretion” value ([4]; Tegomuls X17, 3. day) was 62.0 % of the Administered Dose. The “Cumulative Renal Excretion” value ([4]; Tegomuls X17, 4. day) was 66.6 % of the Administered Dose, the “Cumulative Renal Excretion” value ([4]; Tegomuls X17, 5. day) was 70.0 % of the Administered Dose and the “Cumulative Renal Excretion” value ([4]; Tegomuls X17, 6. day) was 71.9 % of the Administered Dose. For the same molecule, the “Cumulative Renal Excretion” value ([4]; Tegomuls X17, 7. day) was 73.9 % of the Administered Dose, the “Cumulative Renal Excretion” value ([4]; Tylose, 1. day) was 29.7 % of the Administered Dose and the “Cumulative Renal Excretion” value ([4]; Tylose, 2. day) was 39.1 % of the Administered Dose. The “Cumulative Renal Excretion” value ([4]; Tylose, 3. day) was 43.0 % of the Administered Dose, the “Cumulative Renal Excretion” value ([4]; Tylose, 4. day) was 44.0 % of the Administered Dose and the “Cumulative Renal Excretion” value ([4]; Tylose, 5. day) was 44.5 % of the Administered Dose. The “Cumulative Renal Excretion” value ([4]; Tylose, 6. day) was 46.2 % of the Administered Dose and the “Cumulative Renal Excretion” value ([4]; Tylose, 7. day) was 46.4 % of the Administered Dose.
C[C@@H]1O[C@@H](O[C@@H]2C=C3CC[C@@H]4[C@H](CC[C@]5(C)[C@@H](c6ccc(=O)oc6)CC[C@]45O)[C@@]3(C)CC2)[C@H](O)[C@H](O)[C@H]1O [proscillaridin A] showed an LD50 [3, 5] of 7.77 mg/kg, an LD50 [3, 6] of 6.81 mg/kg and an LD50 [3, 7] of 12.3 mg/kg.
